# Laboratory results from patent publication US12486218B2, “Compounds advantageous in the treatment of central nervous system diseases and disorders” (AurimMed Pharma, Inc., priority 2008, dated 2025).
# Like-named read-outs stand apart in the source and are kept apart here.
# Experiments:
# mice [1] = assay: Maximal Electroshock Seizure (MES) test, mice i.p.; type: in vivo; details: for MES, fraction of animals: mice i.p.; for activity in the MES test: mice
# mice [2] = assay: 6 Hz (minimal clonic seizure) model, mice i.p.; type: in vivo; details: for activity in the 6 Hz (minimal clonic seizure) model: mice; for 6 Hz (32 mA), fraction of animals: mice i.p.
# [3] = tested on: rat dopaminergic N27 cells; assay: N27 protection assay against oxidative stress (H2O2 or MPP+; MTT and LDH); type: cell-based; details: drug 24 hours before 200 μM H2O2 or 640 μM MPP+
# Description: FIGS. 20A-25D data are shown illustrating neuroprotective and neuroregenerative effects observed in rat dopaminergic N27 cells. Rat dopaminergic N27 cells are commonly used in in vitro and in vivo model systems for studying Parkinson's disease. Parkinson's disease is a neurodegenerative disorder of the central nervous system that affects more than 6 million people worldwide. The motor symptoms of Parkinson's disease result from the death of dopamine generating cells in the substantia nigra, a region of the midbrain.
# The N27 rat dopaminergic neuron cell line was harvested from E12 rat mesencephalic tissue and was transfected with SV40 to immortalize the cell line. The N27 cell line, when injected into the striata of 6-hydroxydopamine-lesioned rats (an animal model of PD) caused a time-dependent improvement in neurological deficits. This immortalized cell line has been carefully characterized in studies of dopamine biosynthesis, neurotoxicity and used as a dopaminergic neuron model studies.
# The N27 in vitro Parkinson's disease model included a test of cell viability and cell toxicity in response to exposure to oxidative stress (e.g., either 200 μM H2O2 or 640 μM MPP+).
# Cell viability was tested using the MTT assay. The MTT assay is a colorimetric analysis based on the activities of mitochondrial NAD(P)H-dependent cellular oxidoreductase enzymes. These enzymes are capable of reducing the tetrazolium dye, MTT [3-(4,5-dimethylthiazol-2-yl)-2,5-diphenyltetrazolium] bromide, to an insoluble formazan (purple). […] More viable cells equal more accumulation of the insoluble formazan dye.
# Cell toxicity was tested using the […] (LDH) assay. Cells that are stressed secrete LDH. In general, the more cells are stressed, the LDH they secrete into their media. The LDH assay is a reliable colorimetric assay to measure quantitatively the […] (LDH) that is released into the cell culture media from damaged cells as a biomarker for cytotoxicity and cytolysis.
# FIGS. 20A-25D present data from two types of assays: protection and recovery assays. In the protection assays, the drug candidate was applied to the cells at various concentrations for 24 hours, followed by the exposure to oxidative stress (either 200 μM H2O2 or 640 μM MPP+) for measuring neuroprotective effect. H2O2 provides a broad measure of oxidative stress, while MPP+ gives a more specific oxidative stress to dopaminergic neurons.
# The protection assay results are shown in panels A-C of FIGS. 20-25 In the recovery assays, the cells were first damaged by exposure to H2O2 and then various concentrations of the drug were applied to the cells. The results for the recovery assays are shown the D panels of FIGS. 20-25.
# rats = assay: Pilocarpine-induced Status Epilepticus in Rats (prevention; intervention @ 30 min)
# Description: The animal testing was performed using the protocols developed in the Anticonvulsant Screening Program (ASP) at the National Institute of Neurological Disorders and Stroke (NINDS), National Institutes of Health (NIH).
# mice [4] = assay: Subcutaneous Metrazol Seizure threshold (s.c. MET) test, mice i.p.; type: in vivo; details: mice; at 300 mg/kg
# SMN2 promoter = SMN2 promoter β-lactamase reporter assay in NSC34 motor neuron-like cells; type: cell-based; details: for Promoter (SMN2 promoter test, summary YES/NO): Table 13 summary; for SMN2 promoter activity: treatment for 19 hours at a concentration of 1 μM
# Description: FIG. 30 illustrates a screen for SMN2 expression of a number of compounds described herein.
# SMN2 promoter activity was measured using NSC34 motor neuron-like cells stably transfected with a β-lactamase (BLA) reporter gene under the control of a 3.4-kilobase fragment of the SMN2 promoter. D156844 was used as a positive control for this assay.
# [5] = tested on: inclusion of exon 7 in SMN2 mRNAs; assay: Exon 7 inclusion BLA reporter assay in NSC34 cell line; type: cell-based
# Description: To measure changes in the inclusion of exon 7 in SMN2 mRNAs, another NSC34 cell line was used that stably transfected with a reporter construct which expresses BLA when exon 7 is included in the SMN2 minigene mRNAs. 5-(N-ethyl-N-isopropyl)-amiloride (EIPA) was used as a positive control for this assay. Data for tis assay is illustrated in FIG. 30.
# [6] = Rattus norvegicus, 0.5 h, read-out: Intervention @ 30 min, Protection
# [7] = Rattus norvegicus, read-out: Prevention, Protection
# [8] = NSC34 exon 7 BLA reporter cells
compound,measurement,setting,value
"COCCNC(=O)CC(C)c1ccc(OC(F)(F)F)cc1 (stereo not shown) [BL, N-(2-Methoxy-ethyl)-3-(4-trifluoromethoxy-phenyl)-butyramide]","MES, fraction of animals",mice [1]; 100 mg/kg @ 0.25 hr,2/3 @
same,activity in the MES test,mice [1]; at 100 mg/kg,activity
same,activity in the 6 Hz (minimal clonic seizure) model,mice [2]; at 100 mg/kg,activity
same,neuroprotective effect against H2O2 and MPP+ oxidative stresses (MTT and LDH assays),[3],"statistically significant, dose-dependent neuroprotection"
"COc1ccc(C(C)CC(N)=O)cc1Cl (stereo not shown) [J, 3-(3-chloro-4-methoxy-phenyl)butyramide]",responders at 600 mg/kg,rats; [6],38%
same,responders at 600 mg/kg,rats; [7],75%
same,activity in the s.c. MET test,mice [4],activity
"NC(=O)CC(c1ccc2c(c1)OCCO2)C1CC1 (stereo not shown) [AP, 3-Cyclopropyl-3-(2,3dihydro-benzo[1,4]dioxin-6-yl)propionamide]",responders at 600 mg/kg,rats; [6],75%
same,responders at 450 mg/kg,rats; [7],75%
same,activity in the s.c. MET test,mice [4],activity
same,activity in the MES test,mice [1]; at 300 mg/kg,activity
CC(CC(N)=O)c1ccc(S(C)(=O)=O)cc1 (racemic) [AV],"Prevention, Protection","rats; rats, pilocarpine-induced status epilepticus, dose 600 mg/kg",25%
same,neuroprotective effect against H2O2 and MPP+ oxidative stresses (MTT and LDH assays),[3],"statistically significant, dose-dependent neuroprotection"
Cc1nc(C)c(C(C)CC(N)=O)cc1C(C)CC(N)=O (mixture of isomers) [DA],"Promoter (SMN2 promoter test, summary YES/NO)",SMN2 promoter,YES
same,SMN2 promoter activity,SMN2 promoter,increased SMN2 promoter activity
same,neuroprotective effect against H2O2 and MPP+ oxidative stresses (MTT and LDH assays),[3],"statistically significant, dose-dependent neuroprotection"
"COCCCNC(=O)CC(C)c1ccc(OC(F)(F)F)cc1 (stereo not shown) [BM, N-(3-Methoxy-propyl)-3-(4-trifluoromethoxy-phenyl)-butyramide]",activity in the s.c. MET test,mice [4],activity
same,activity in the MES test,mice [1]; at 300 mg/kg,activity
same,SMN2 promoter activity,SMN2 promoter,increased SMN2 promoter activity
same,"6 Hz (32 mA), fraction of animals",mice [2]; 100 mg/kg @ 0.5 hr,1/4 @ 0.5 hr
same,neuroprotective effect against H2O2 and MPP+ oxidative stresses (MTT and LDH assays),[3],"statistically significant, dose-dependent neuroprotection"
"CC(CC(=O)N(C)C)c1ccc2c(c1)OCO2 (stereo not shown) [Compound N, N,N-dimethyl-3-(3,4-methylenedioxy-phenyl)butyramide]","MES, fraction of animals",mice [1]; 100 mg/kg @ 0.5 hr,"1/3 @0.5 hr,"
same,activity in the MES test,mice [1]; at 300 mg/kg,activity
same,neuroprotective effect against H2O2 and MPP+ oxidative stresses (MTT and LDH assays),[3],potent dose-dependent neuroprotective effects
"COc1ccc2cc(C(C)CC(N)=O)ccc2c1 (stereo not shown) [Compound AE, 3-(6-Methoxynaphthalen-2-yl)-butyramide]",activity in the MES test,mice [1]; at 100 mg/kg,activity
same,"6 Hz (32 mA), fraction of animals",mice [2]; 200 mg/kg @ 0.25 hr,2/4 @ 0.25 hrs
same,activity in the 6 Hz (minimal clonic seizure) model,mice [2]; at 200 mg/kg,activity
same,neuroprotective effect against H2O2 and MPP+ oxidative stresses (MTT and LDH assays),[3],"statistically significant, dose-dependent neuroprotection"
"CC(CC(N)=O)c1cccc(F)c1 (stereo not shown) [Compound D, 3-(3-Fluorophenyl)butyramide]",responders at 400 mg/kg,rats; [6],75%
same,responders at 200 mg/kg,rats; [7],100%
same,activity in the s.c. MET test,mice [4],activity
same,activity in the MES test,mice [1]; at 300 mg/kg,activity
"CC(CC(N)=O)c1ccc(-c2ccccc2)c(F)c1 (stereo not shown) [Compound AX, 3-(2-Fluoro-biphenyl-4-yl)butyramide]","SMN2 promoter assay, particularly strong hits",SMN2 promoter; NSC34 BLA reporter cells,particularly strong hits
same,"Promoter (SMN2 promoter test, summary YES/NO)",SMN2 promoter,YES
same,SMN2 promoter activity,SMN2 promoter,increased SMN2 promoter activity
same,"6 Hz (32 mA), fraction of animals",mice [2]; 100 mg/kg @ 0.5 hr,3/4
same,"6 Hz (32 mA), fraction of animals",mice [2]; 100 mg/kg @ 1.0 hr,2/4
same,"6 Hz (32 mA), fraction of animals",mice [2]; 100 mg/kg @ 2.0 hr,1/4 @
same,activity in the 6 Hz (minimal clonic seizure) model,mice [2]; at 100 mg/kg,activity
same,effect on the inclusion of exon 7 in SMN2 transcripts,[5]; [8],positive effect on the inclusion of exon 7
same,"exon 7 test, particularly strong hits",[5]; [8],Particularly strong hits
same,Exon 7 inclusion (summary YES/NO),[5]; Table 13 summary,YES
"CNC(=O)CC(C)c1ccc2c(c1)OCO2 (stereo not shown) [Compound M, N-methyl-3-(3,4-methylenedioxy-phenyl)butyramide]",responders at 600 mg/kg,rats; [7],100%
same,"Promoter (SMN2 promoter test, summary YES/NO)",SMN2 promoter,YES
same,SMN2 promoter activity,SMN2 promoter,increased SMN2 promoter activity
same,neuroprotective effect against H2O2 and MPP+ oxidative stresses (MTT and LDH assays),[3],potent dose-dependent neuroprotective effects
"CC(C)C(CC(N)=O)c1ccc(Cl)cc1 (stereo not shown) [AR, 3-(4-Chloro-phenyl)-4-methyl-pentanoic-acid-amide]",activity in the s.c. MET test,mice [4],activity
same,activity in the MES test,mice [1]; at 300 mg/kg,activity
same,"SMN2 promoter assay, evidence of activity (may warrant further study)",SMN2 promoter; NSC34 BLA reporter cells,show evidence of activity
same,"6 Hz (32 mA), fraction of animals",mice [2]; 100 mg/kg @ 0.25 hr,3/4
same,"6 Hz (32 mA), fraction of animals",mice [2]; 100 mg/kg @ 0.5 hr,2/4
"CC1CCN(C(=O)CC(C)c2ccc(OC(F)(F)F)cc2)CC1 (stereo not shown) [BK, 1-(4-Methyl-piperidin-1-yl)-3-(4-trifluoromethoxy-phenyl)-butan-1-one]","MES, fraction of animals",mice [1]; 100 mg/kg @ 0.5 hr,1/3
same,"MES, fraction of animals",mice [1]; 100 mg/kg @ 2.0 hr,2/3
same,"Promoter (SMN2 promoter test, summary YES/NO)",SMN2 promoter,YES
same,SMN2 promoter activity,SMN2 promoter,increased SMN2 promoter activity
same,activity in the 6 Hz (minimal clonic seizure) model,mice [2]; at 100 mg/kg,activity
same,neuroprotective effect against H2O2 and MPP+ oxidative stresses (MTT and LDH assays),[3],"statistically significant, dose-dependent neuroprotection"
"COc1ccc(C(CC(N)=O)C2CC2)cc1C (stereo not shown) [AN, 3-Cyclopropyl-3-(4-methoxy-3-methyl-phenyl)propionamide]","MES, fraction of animals",mice [1]; 100 mg/kg @ 0.25 hr,1/3 @
same,activity in the MES test,mice [1]; at 100 mg/kg,activity
same,"Promoter (SMN2 promoter test, summary YES/NO)",SMN2 promoter,YES
same,SMN2 promoter activity,SMN2 promoter,increased SMN2 promoter activity
same,"6 Hz (32 mA), fraction of animals",mice [2]; 100 mg/kg @ 0.25 hr,4/4
same,"6 Hz (32 mA), fraction of animals",mice [2]; 100 mg/kg @ 0.5 hr,3/4
same,"6 Hz (32 mA), fraction of animals",mice [2]; 100 mg/kg @ 1.0 hr,1/4 @
same,activity in the 6 Hz (minimal clonic seizure) model,mice [2]; at 100 mg/kg,activity
same,effect on the inclusion of exon 7 in SMN2 transcripts,[5]; [8],positive effect on the inclusion of exon 7
"CCNC(=O)CC(C)c1ccc(OC(F)(F)F)cc1 (stereo not shown) [BF, N-Ethyl-3-(4-trifluoromethoxy-phenyl)-butyramide]",responders at 200 mg/kg,rats; [7],88%
same,activity in the s.c. MET test,mice [4],activity
same,activity in the MES test,mice [1]; at 300 mg/kg,activity
same,"6 Hz (32 mA), fraction of animals",mice [2]; 100 mg/kg @ 0.25 hr,3/4
same,"6 Hz (32 mA), fraction of animals",mice [2]; 100 mg/kg @ 0.5 hr,4/4
same,"6 Hz (32 mA), fraction of animals",mice [2]; 100 mg/kg @ 1.0 hr,2/4
same,"6 Hz (32 mA), fraction of animals",mice [2]; 100 mg/kg @ 2.0 hr,3/4
"Cc1cc(C(CC(N)=O)C2CC2)ccc1F (stereo not shown) [AO, 3-Cyclopropyl-3-(4-fluoro-3-methylphenyl)-propionamide]",responders at 97 mg/kg,rats; [6],50%
same,responders at 65 mg/kg,rats; [7],86%
same,activity in the s.c. MET test,mice [4],activity
same,"MES, fraction of animals",mice [1]; 100 mg/kg @ 0.5 hr,1/3 @
same,activity in the MES test,mice [1]; at 100 mg/kg,activity
same,neuroprotective effect against H2O2 and MPP+ oxidative stresses (MTT and LDH assays),[3],"statistically significant, dose-dependent neuroprotection"
